Source: US20040254100A1, “Use of thiostrepton as an anti-mycobacterial agent” (priority 2000, published 2004)

Test system: M. tuberculosis H37Ra in murine alveolar macrophage-like cell line MH-S
Assay: microbe, parasite or virus in culture
Assay type: cell-based
Details: Mycobacterium tuberculosis, 24 h

C=C(NC(=O)C(=C)NC(=O)c1csc(C2=N[C@@H]3c4csc(n4)[C@H]4NC(=O)c5csc(n5)[C@H]([C@](C)(O)[C@@H](C)O)NC(=O)[C@H]5CSC(=N5)/C(=C/C)NC(=O)[C@H]([C@@H](C)O)NC(=O)c5csc(n5)[C@]3(CC2)NC(=O)[C@H](C)NC(=O)C(=C)NC(=O)[C@H](C)NC(=O)[C@H]([C@@H](C)CC)N[C@@H]2C=Cc3c([C@H](C)O)cc(nc3[C@H]2O)C(=O)O[C@@H]4C)n1)C(N)=O [thiostrepton, Thiostrepton]
IC50: 30 nM
